Laboratory results taken from patent publication US8980926B2, “2-aminoindole compounds and methods for the treatment of malaria” (Genzyme Corporation, priority 2009, dated 2015).

tested on: P. falciparum strain 3D7; test: In vitro potency against P. falciparum strain 3D7 (SYBR green/DAPI); assay type: cell-based; conditions: Plasmodium falciparum, reductions in parasitemia, read-out: IC50 values

| IC50 [µM] | Compound |
| --- | --- |
| 0.001 to 0.1 | NC1=Nc2ccc(Cl)cc2C1(O)c1ccccc1-c1ccccc1Br (stereo not shown) [Compound 115] |
| 0.1 to 0.5 | NC1=Nc2ccc(Cl)cc2C1(O)C1CCCCC1 (stereo not shown) [Compound 116] |
| 0.1 to 0.5 | NC1=Nc2ccc(Cl)cc2C1(O)c1cccc2ccncc12 (stereo not shown) [Compound 117] |
| 0.1 to 0.5 | NC1=Nc2ccc(Cl)cc2C1(O)c1ccccc1Br (stereo not shown) [Compound 118] |
| 0.001 to 0.1 | NC1=Nc2ccc(Cl)cc2C1(O)c1ccccc1N1CCOCC1 (stereo not shown) [Compound 119] |
| 0.5 to 1 | CS(=O)(=O)c1ccccc1C1(O)C(N)=Nc2ccc(Cl)cc21 (stereo not shown) [Compound 120] |
| 0.001 to 0.1 | CSc1ccccc1C1(O)C(N)=Nc2ccc(Cl)cc21 (stereo not shown) [Compound 121] |
| 0.1 to 0.5 | COc1ccccc1C1(O)C(N)=Nc2ccc(C)cc21 (stereo not shown) [Compound 122] |
| 0.001 to 0.1 | COc1ccccc1C1(O)C(N)=Nc2ccc(Br)cc21 (stereo not shown) [Compound 123] |
| 0.1 to 0.5 | NC1=Nc2ccc(Br)cc2C1(O)Cc1ccccc1 (stereo not shown) [Compound 124] |
| 0.1 to 0.5 | C#Cc1ccc2c(c1)C(O)(c1ccc(C3(c4ccccc4)OCCO3)cc1)C(N)=N2 (stereo not shown) [Compound 125] |
| 0.1 to 0.5 | COc1ccc(CC2(O)C(N)=Nc3ccccc32)cc1 (stereo not shown) [Compound 126] |
| 0.5 to 1 | NC1=Nc2cccc(Cl)c2C1(O)c1cccc2ccccc12 (stereo not shown) [Compound 127] |
| 0.1 to 0.5 | Cn1cc(CC2(O)C(N)=Nc3ccccc32)c2ccccc21 (stereo not shown) [Compound 128] |
| 0.1 to 0.5 | NC1=Nc2ccc(Cl)cc2C1(O)c1ccccc1-c1ccccc1 (stereo not shown) [Compound 129] |
| 0.1 to 0.5 | NC1=Nc2ccc(Cl)cc2C1(O)c1ccccc1N1CCCCC1 (stereo not shown) [Compound 130] |
| 0.001 to 0.1 | Cc1ccc2c(c1)C(O)(Cc1ccccc1)C(N)=N2 (stereo not shown) [Compound 131] |
| 0.1 to 0.5 | COc1ccc2c(c1)C(O)(c1ccccc1OC)C(N)=N2 (stereo not shown) [Compound 132] |
| 0.001 to 0.1 | COc1ccc2c(c1)C(O)(Cc1ccccc1)C(N)=N2 (stereo not shown) [Compound 133] |
| 0.001 to 0.1 | COc1ccccc1CC1(O)C(N)=Nc2ccc(Cl)cc21 (stereo not shown) [Compound 134] |
| 0.001 to 0.1 | Cn1ncc2cccc(C3(O)C(N)=Nc4ccc(Cl)cc43)c21 (stereo not shown) [Compound 135] |
| 0.001 to 0.1 | Cc1csc2c(C3(O)C(N)=Nc4ccc(Cl)cc43)cccc12 (stereo not shown) [Compound 136] |
| 0.1 to 0.5 | NC1=Nc2ccc(Cl)cc2C1(O)c1nc2ccccc2s1 (stereo not shown) [Compound 137] |
| 0.1 to 0.5 | Cn1ncc2ccc(C3(O)C(N)=Nc4ccc(Cl)cc43)cc21 (stereo not shown) [Compound 138] |
| 0.001 to 0.1 | NC1=Nc2ccc(Cl)cc2C1(O)Cc1nc2ccccc2s1 (stereo not shown) [Compound 139] |

| IC50 [µM] | Compound |
| --- | --- |
| 0.001 to 0.1 | COc1ccc(Cl)cc1C1(O)C(N)=Nc2ccc(Cl)cc21 (stereo not shown) [Compound 140] |
| 0.001 to 0.1 | CCOc1ccccc1C1(O)C(N)=Nc2ccc(Cl)cc21 (stereo not shown) [Compound 141] |
| 0.001 to 0.1 | Cc1ccc2c(c1)C(O)(c1cccc3ccsc13)C(N)=N2 (stereo not shown) [Compound 143] |
| 0.001 to 0.1 | NC1=Nc2ccc(Cl)cc2C1(O)c1cc2ccccc2o1 (stereo not shown) [Compound 144] |
| 0.001 to 0.1 | COc1ccc(F)cc1C1(O)C(N)=Nc2ccc(Cl)cc21 (stereo not shown) [Compound 145] |
| 0.001 to 0.1 | CCOc1ccc(OC)cc1C1(O)C(N)=Nc2ccc(Cl)cc21 (stereo not shown) [Compound 147] |
| 0.1 to 0.5 | NC1=Nc2ccc(Cl)cc2C1(O)c1ccc2ncsc2c1 (stereo not shown) [Compound 148] |
| 0.5 to 1 | CN1CCN(c2ccccc2C2(O)C(N)=Nc3ccc(Cl)cc32)CC1 (stereo not shown) [Compound 149] |
| 0.001 to 0.1 | NC1=Nc2ccc(Cl)cc2C1(O)c1cccc2ccoc12 (stereo not shown) [Compound 150] |
| 0.001 to 0.1 | NC1=Nc2ccc(Cl)cc2C1(O)c1ccccc1OC1CCC1 (stereo not shown) [Compound 151] |
| 0.001 to 0.1 | COc1ccc(OC(C)C)c(C2(O)C(N)=Nc3ccc(Cl)cc32)c1 (stereo not shown) [Compound 152] |
| 0.001 to 0.1 | COc1ccc2c(c1)C(O)(c1cc3ccccc3s1)C(N)=N2 (stereo not shown) [Compound 153] |
| 0.001 to 0.1 | CC(C)Oc1ccc(F)cc1C1(O)C(N)=Nc2ccc(Cl)cc21 (stereo not shown) [Compound 154] |
| 0.001 to 0.1 | CCOc1ccc(Cl)cc1C1(O)C(N)=Nc2ccc(Cl)cc21 (stereo not shown) [Compound 155] |
| 0.001 to 0.1 | CC(C)Oc1ccc(Cl)cc1C1(O)C(N)=Nc2ccc(Cl)cc21 (stereo not shown) [Compound 156] |
| 0.001 to 0.1 | NC1=Nc2ccc(Cl)cc2C1(O)c1cc(Cl)ccc1OC1CCC1 (stereo not shown) [Compound 157] |
| 0.001 to 0.1 | COc1ccc(OC2CCC2)c(C2(O)C(N)=Nc3ccc(Cl)cc32)c1 (stereo not shown) [Compound 158] |
| 0.001 to 0.1 | COc1ccc2c(c1)C(O)(c1cccc3ccsc13)C(N)=N2 (stereo not shown) [Compound 159] |
| 0.001 to 0.1 | NC1=Nc2ccc(Cl)cc2C1(O)Cc1cc2ccccc2o1 (stereo not shown) [Compound 160] |
| 0.001 to 0.1 | NC1=Nc2ccc(Cl)cc2C1(O)c1ccccc1N1CCCCCC1 (stereo not shown) [Compound 162] |
| 0.001 to 0.1 | CCSc1ccccc1C1(O)C(N)=Nc2ccc(Cl)cc21 (stereo not shown) [Compound 163] |
| 0.001 to 0.1 | NC1=Nc2ccc(Cl)cc2C1(O)c1cc(F)ccc1OC1CCC1 (stereo not shown) [Compound 164] |
| 0.001 to 0.1 | COc1ccc(OC2CC2)c(C2(O)C(N)=Nc3ccc(Cl)cc32)c1 (stereo not shown) [Compound 165] |
| 0.001 to 0.1 | NC1=Nc2ccc(Br)cc2C1(O)c1cccc2ccsc12 (stereo not shown) [Compound 166] |
| 0.1 to 0.5 | COc1ccc2c(c1)C(O)(c1ccccc1N1CCOCC1)C(N)=N2 (stereo not shown) [Compound 167] |

| IC50 [µM] | Compound |
| --- | --- |
| 0.001 to 0.1 | CC(C)c1ccccc1CC1(O)C(N)=Nc2ccc(Cl)cc21 (stereo not shown) [Compound 168] |
| 0.001 to 0.1 | CSc1ccc(Cl)cc1C1(O)C(N)=Nc2ccc(Cl)cc21 (stereo not shown) [Compound 169] |
| 0.001 to 0.1 | CC(C)Sc1ccccc1C1(O)C(N)=Nc2ccc(Cl)cc21 (stereo not shown) [Compound 170] |
| 0.001 to 0.1 | CCSc1ccc(Cl)cc1C1(O)C(N)=Nc2ccc(Cl)cc21 (stereo not shown) [Compound 171] |
| 0.5 to 1 | CC(C)n1ncc2cccc(C3(O)C(N)=Nc4ccc(Cl)cc43)c21 (stereo not shown) [Compound 172] |
| 0.1 to 0.5 | Cc1ccc(CC2(O)C(N)=Nc3ccc(Cl)cc32)o1 (stereo not shown) [Compound 173] |
| 0.001 to 0.1 | CN(C)c1ccc(Cl)cc1C1(O)C(N)=Nc2ccc(Cl)cc21 (stereo not shown) [Compound 174] |
| 0.001 to 0.1 | NC1=Nc2ccc(Cl)cc2C1(O)c1cc(F)ccc1N1CCCCCC1 (stereo not shown) [Compound 175] |
| 0.001 to 0.1 | CC(C)Sc1ccc(Cl)cc1C1(O)C(N)=Nc2ccc(Cl)cc21 (stereo not shown) [Compound 176] |
| 0.001 to 0.1 | COc1ccc(OC(C)(C)C)c(C2(O)C(N)=Nc3ccc(Cl)cc32)c1 (stereo not shown) [Compound 177] |
| 0.001 to 0.1 | NC1=Nc2ccc(Cl)cc2C1(O)c1cc(F)ccc1N1CCOCC1 (stereo not shown) [Compound 178] |
| 0.1 to 0.5 | COc1ccc2c(c1)C(O)(c1cc(F)ccc1N1CCOCC1)C(N)=N2 (stereo not shown) [Compound 179] |
| 0.1 to 0.5 | COc1ccc2c(c1)C(O)(C1CC1)C(N)=N2 (stereo not shown) [Compound 180] |
| 0.001 to 0.1 | Cc1ccc(CC2(O)C(N)=Nc3ccc(Cl)cc32)s1 (stereo not shown) [Compound 181] |
| 0.001 to 0.1 | CCSc1ccc(F)cc1C1(O)C(N)=Nc2ccc(Cl)cc21 (stereo not shown) [Compound 182] |
| 0.001 to 0.1 | CC(C)Sc1ccc(F)cc1C1(O)C(N)=Nc2ccc(Cl)cc21 (stereo not shown) [Compound 183] |
| 0.001 to 0.1 | NC1=Nc2ccc(Cl)cc2C1(O)c1cc(F)ccc1SC1CCC1 (stereo not shown) [Compound 184] |
| 0.001 to 0.1 | NC1=Nc2ccc(Cl)cc2C1(O)c1cc(SC2CCC2)ccc1F (stereo not shown) [Compound 185] |
| 0.001 to 0.1 | NC1=Nc2ccc(Cl)cc2C1(O)c1cc(Cl)ccc1F (stereo not shown) [Compound 186] |
| 0.001 to 0.1 | NC1=Nc2ccc(Cl)cc2C1(O)c1ccccc1SC1CCC1 (stereo not shown) [Compound 187] |
| 0.1 to 0.5 | CC(C)(C)Sc1ccc(F)c(C2(O)C(N)=Nc3ccc(Cl)cc32)c1 (stereo not shown) [Compound 188] |
| 0.001 to 0.1 | NC1=Nc2ccc(Cl)cc2C1(O)c1cc(Cl)ccc1SC1CCC1 (stereo not shown) [Compound 189] |
| 0.001 to 0.1 | COc1ccc(SC(C)C)c(C2(O)C(N)=Nc3ccc(Cl)cc32)c1 (stereo not shown) [Compound 190] |
| 0.001 to 0.1 | CCOc1ccc(OC)cc1C1(O)C(N)=Nc2ccccc21 (stereo not shown) [Compound 191] |
| 0.001 to 0.1 | CN(C)c1ccc(F)cc1C1(O)C(N)=Nc2ccc(Cl)cc21 (stereo not shown) [Compound 192] |

| IC50 [µM] | Compound |
| --- | --- |
| 0.001 to 0.1 | CC(C)(C)Sc1ccccc1C1(O)C(N)=Nc2ccc(Cl)cc21 (stereo not shown) [Compound 193] |
| 0.001 to 0.1 | CC(C)(C)Oc1ccc(F)cc1C1(O)C(N)=Nc2ccc(Cl)cc21 (stereo not shown) [Compound 194] |
| 0.001 to 0.1 | COc1ccc(OC2CCC2)c(C2(O)C(N)=Nc3ccccc32)c1 (stereo not shown) [Compound 195] |
| 0.001 to 0.1 | CCSc1ccc(OC)cc1C1(O)C(N)=Nc2ccc(Cl)cc21 (stereo not shown) [Compound 196] |
| 0.1 to 0.5 | NC1=Nc2ccc(Cl)cc2C1(O)C1CCC1 (stereo not shown) [Compound 197] |
| 0.1 to 0.5 | NC1=Nc2ccc(Cl)cc2C1(O)c1cc(F)ccc1F (stereo not shown) [Compound 198] |
| 0.001 to 0.1 | NC1=Nc2ccc(Cl)cc2C1(O)c1cc(F)ccc1SC1CC1 (stereo not shown) [Compound 199] |
| 0.001 to 0.1 | NC1=Nc2ccc(Cl)cc2C1(O)c1cc(F)ccc1C1CC1 (stereo not shown) [Compound 200] |
| 0.001 to 0.1 | COc1cnc(OC)c(C2(O)C(N)=Nc3ccc(Cl)cc32)c1 (stereo not shown) [Compound 201] |
| 0.001 to 0.1 | CSc1ccc(F)cc1C1(O)C(N)=Nc2ccc(Cl)cc21 (stereo not shown) [Compound 203] |
| 0.001 to 0.1 | CSc1ccc(F)c(C2(O)C(N)=Nc3ccc(Cl)cc32)c1 (stereo not shown) [Compound 204] |
| 0.001 to 0.1 | NC1=Nc2ccc(Cl)cc2C1(O)c1ccccc1C1CC1 (stereo not shown) [Compound 205] |
| 0.1 to 0.5 | Cc1csc2c(CC3(O)C(N)=Nc4ccc(Cl)cc43)cccc12 (stereo not shown) [Compound 206] |
| 0.1 to 0.5 | COc1cnc(F)c(C2(O)C(N)=Nc3ccc(Cl)cc32)c1 (stereo not shown) [Compound 207] |
| 0.001 to 0.1 | CC(C)Oc1ccc(F)c(C2(O)C(N)=Nc3ccc(Cl)cc32)c1 (stereo not shown) [Compound 208] |
| 0.001 to 0.1 | CCOc1ccc(F)c(C2(O)C(N)=Nc3ccc(Cl)cc32)c1 (stereo not shown) [Compound 209] |
| 0.001 to 0.1 | CCOc1cnc(OC)cc1C1(O)C(N)=Nc2ccc(Cl)cc21 (stereo not shown) [Compound 210] |
| 0.001 to 0.1 | CCOc1cnc(OC)c(C2(O)C(N)=Nc3ccc(Cl)cc32)c1 (stereo not shown) [Compound 211] |
| 0.001 to 0.1 | COc1ccc(C2CC2)c(C2(O)C(N)=Nc3ccc(Cl)cc32)c1 (stereo not shown) [Compound 212] |
| 0.001 to 0.1 | NC1=Nc2ccc(Cl)cc2C1(O)c1cc(F)ccc1OC1CCOCC1 (stereo not shown) [Compound 213] |
| 0.001 to 0.1 | NC1=Nc2ccc(Cl)cc2C1(O)c1ccccc1N1CCSCC1 (stereo not shown) [Compound 214] |
| 0.001 to 0.1 | CC(C)Oc1cc(F)ccc1C1(O)C(N)=Nc2ccc(Cl)cc21 (stereo not shown) [Compound 215] |
